Drawing on ChEMBL document CHEMBL5365405, “Discovery of potent NAMPT-Targeting PROTACs using FK866 as the warhead” (Bioorg Med Chem Lett, 2023), this text covers IC50, Activity and EC50 for ten compounds.

For orientation: IC50 means the concentration that gives 50% inhibition. Broadly, the EC50 is the concentration giving half of the maximal effect.

Data set [1] in a line: Cytotoxicity activity against HUVEC cells assessed as cell growth inhibition. It is filed as toxicity, cell-based. The following applies: human.
The target in data set [2] is T1, von Hippel-Lindau disease tumor suppressor/Nicotinamide phosphoribosyltransferase (Homo sapiens) (UniProt P43490+P40337). Briefly: (§1) PROTAC activity at VHL/NAMPT in human A2780 cells assessed as protein degradation measured after 24 hrs by Western blot analysis. It is filed as cell-based. Background: Immunoblotting shows a protein as a band on a membrane.
For data set [3], the target named is von Hippel-Lindau disease tumor suppressor/Nicotinamide phosphoribosyltransferase (Homo sapiens, UniProt P40337+P43490). The data set is described as §1. It is filed as cell-based.
Data set [4] has as its system A2780. Briefly: Antiproliferative activity against human A2780 cells assessed as cell growth inhibition. It is filed as functional, cell-based.
The target of data set [5] is Nicotinamide phosphoribosyltransferase (Homo sapiens, UniProt P43490). The experiment in a line: Inhibition of NAMPT (unknown origin).
Data set [6] deals with T1, von Hippel-Lindau disease tumor suppressor/Nicotinamide phosphoribosyltransferase (Homo sapiens). Briefly: PROTAC activity at VHL/NAMPT in human A2780 cells assessed as protein degradation at 200 nM preincubated with NAMPT inhibitor, FK866 followed by compound addition and measured after 24 hrs by Western blot analysis. It is filed as cell-based.
Data set [7] shares this target. The experiment in a line: PROTAC activity at VHL/NAMPT in human A2780 cells assessed as protein degradation at 200 nM by Western blot analysis. It is filed as cell-based. As to conditions: TDE = time-dependent effect.
For data set [8] the target is unchanged. Briefly: PROTAC activity at VHL/NAMPT in human A2780 cells assessed as protein degradation at 200 nM measured after 24 hrs by Western blot analysis relative to control. It is filed as cell-based.
Data set [9] has the same target. Briefly: PROTAC activity at VHL/NAMPT in human A2780 cells assessed as protein degradation at 200 nM preincubated with MLN4924 followed by compound addition and measured after 24 hrs by Western blot analysis. The data set is classed as cell-based.
For data set [10] the target is unchanged. The experiment in a line: PROTAC activity at VHL/NAMPT in human A2780 cells assessed as protein degradation at 200 nM preincubated with MG132 followed by compound addition and measured after 24 hrs by Western blot analysis. It is filed as cell-based.
For data set [11] the target is unchanged. The experiment in a line: PROTAC activity at VHL/NAMPT in human A2780 cells assessed as protein degradation at 200 nM preincubated with carfilzomib followed by compound addition and measured after 24 hrs by Western blot analysis. It is filed as cell-based.
The target is the same in data set [12]. The experiment in a line: PROTAC activity at VHL/NAMPT in human A2780 cells assessed as protein degradation at 200 nM preincubated with VHL-Boc followed by compound addition and measured after 24 hrs by Western blot analysis. It is filed as cell-based.
Data set [13] shares this target. Briefly: PROTAC activity at VHL/NAMPT in human A2780 cells assessed as protein degradation at 200 nM preincubated with VHL-Ac followed by compound addition and measured after 24 hrs by Western blot analysis. The data set is classed as cell-based.
The test system of data set [14] is A2780. Briefly: Induction of apoptosis in human A2780 cells assessed as total apoptotic cells at 1.6 nM incubated for 48 hrs by flow cytometry analysis (reference value: 9.27 %). The data set is classed as functional. (Flow cytometry measures light scatter and fluorescence of single cells or particles in a stream.)
For data set [15], the system named is A2780. The experiment in a line: Induction of apoptosis in human A2780 cells assessed as total apoptotic cells at 40 nM incubated for 48 hrs by flow cytometry analysis (reference value: 9.27 %). The data set is classed as functional.
Data set [16] relates to A2780. The experiment in a line: Induction of apoptosis in human A2780 cells assessed as total apoptotic cells at 1000 nM incubated for 48 hrs by flow cytometry analysis (reference value: 9.27 %). It is filed as functional.

Activity calls are given as the source filed them. The rule behind the calls is not given here.

T1 sequence (P40337 whole entry, looked up): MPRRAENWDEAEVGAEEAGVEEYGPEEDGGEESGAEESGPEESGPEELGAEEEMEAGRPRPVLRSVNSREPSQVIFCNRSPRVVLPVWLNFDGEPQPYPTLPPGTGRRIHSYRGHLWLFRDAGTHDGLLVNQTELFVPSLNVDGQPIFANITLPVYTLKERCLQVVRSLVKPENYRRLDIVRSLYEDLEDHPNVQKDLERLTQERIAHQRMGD
T1 sequence (P43490 whole entry, looked up): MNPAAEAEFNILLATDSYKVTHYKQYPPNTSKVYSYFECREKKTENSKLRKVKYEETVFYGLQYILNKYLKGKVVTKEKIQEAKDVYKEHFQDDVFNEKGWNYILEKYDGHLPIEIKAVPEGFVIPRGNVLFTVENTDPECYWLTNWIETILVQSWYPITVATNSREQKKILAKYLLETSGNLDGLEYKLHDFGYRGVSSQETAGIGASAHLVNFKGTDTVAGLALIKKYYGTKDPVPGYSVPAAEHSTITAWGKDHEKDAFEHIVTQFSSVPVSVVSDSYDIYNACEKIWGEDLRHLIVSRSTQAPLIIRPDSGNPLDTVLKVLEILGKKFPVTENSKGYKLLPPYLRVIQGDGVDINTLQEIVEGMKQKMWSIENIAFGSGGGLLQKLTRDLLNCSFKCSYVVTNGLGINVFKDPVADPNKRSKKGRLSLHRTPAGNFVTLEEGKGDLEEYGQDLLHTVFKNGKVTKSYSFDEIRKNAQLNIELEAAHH
Chain of Nicotinamide phosphoribosyltransferase (P43490 whole entry): as the sequence (P43490 whole entry, looked up) above
Chain of von Hippel-Lindau disease tumor suppressor/Nicotinamide phosphoribosyltransferase (P43490 whole entry): as the sequence (P43490 whole entry, looked up) above
Chain of von Hippel-Lindau disease tumor suppressor/Nicotinamide phosphoribosyltransferase (P40337 whole entry): as the sequence (P40337 whole entry, looked up) above

For the compound `Cc1ncsc1-c1ccc([C@H](C)NC(=O)[C@@H]2C[C@@H](O)CN2C(=O)[C@@H](NC(=O)CCCCCCCCNC(=O)c2ccc(C(=O)N3CCC(CCCCNC(=O)/C=C/c4cccnc4)CC3)cc2)C(C)(C)C)cc1`, the IC50 is 0.9 nM in data set [1], 37.9 nM in [4] and 3.12 nM in data set [5]. Further, the Activity result in data set [2] is “Dose-Dependent Effect”. For the same compound, the EC50 in data set [3] was 54.4 nM.
Regarding `Cc1ncsc1-c1ccc([C@H](C)NC(=O)[C@@H]2C[C@@H](O)CN2C(=O)[C@@H](NC(=O)CCCCCCCNC(=O)c2ccc(C(=O)N3CCC(CCCCNC(=O)/C=C/c4cccnc4)CC3)cc2)C(C)(C)C)cc1`, the outcome in [6], in [9], in [10], in data set [11], in data set [12] and in [13] was inactive. Also, the IC50 in data set [1] was 0.3 nM; in data set [4], 30.6 nM; in data set [5], 2.14 nM. The Activity result is “Dose-Dependent Effect” in data set [2]; “Tde” in [7]; 78% in data set [8]; 10.15% in [14]; 14.57% in data set [15]; 20.81% in data set [16]. Also, in data set [3], the EC50 amounted to 31.7 nM.
`Cc1ncsc1-c1ccc([C@H](C)NC(=O)[C@@H]2C[C@@H](O)CN2C(=O)[C@@H](NC(=O)CCCNC(=O)c2ccc(C(=O)N3CCC(CCCCNC(=O)/C=C/c4cccnc4)CC3)cc2)C(C)(C)C)cc1`: the IC50 in data set [1] came out at 1.05 nM; in [4] it was 33.7 nM; in data set [5] it was 1.53 nM.
Turning to `Cc1ncsc1-c1ccc([C@H](C)NC(=O)[C@@H]2C[C@@H](O)CN2C(=O)[C@@H](NC(=O)CCCCCCCCCCNC(=O)c2ccc(C(=O)N3CCC(CCCCNC(=O)/C=C/c4cccnc4)CC3)cc2)C(C)(C)C)cc1`, the IC50 in [1] came out at 2.23 nM; in data set [4], 41.1 nM; in data set [5] it was 1.47 nM. Further, the EC50 in data set [3] was determined as 111 nM.
With `Cc1ncsc1-c1ccc([C@H](C)NC(=O)[C@@H]2C[C@@H](O)CN2C(=O)[C@@H](NC(=O)CCCCCNC(=O)c2ccc(C(=O)N3CCC(CCCCNC(=O)/C=C/c4cccnc4)CC3)cc2)C(C)(C)C)cc1`, the IC50 in data set [1] amounted to 0.45 nM; in data set [4], 2.4 nM; in data set [5] it was 5.59 nM. Moreover, the Activity result in [2] was “Dose-Dependent Effect”. In addition, the EC50 in data set [3] amounted to 293 nM.
As for `Cc1ncsc1-c1ccc([C@H](C)NC(=O)[C@@H]2C[C@@H](O)CN2C(=O)[C@@H](NC(=O)CCCCCCCCCNC(=O)c2ccc(C(=O)N3CCC(CCCCNC(=O)/C=C/c4cccnc4)CC3)cc2)C(C)(C)C)cc1`, the IC50 in [1] is 1.51 nM; in data set [4], 69.2 nM; in data set [5] it was 7.3 nM. Also, in [3], the EC50 is above 500 nM.
Take `Cc1ncsc1-c1ccc([C@H](C)NC(=O)[C@@H]2C[C@@H](O)CN2C(=O)[C@@H](NC(=O)CCCCCCNC(=O)c2ccc(C(=O)N3CCC(CCCCNC(=O)/C=C/c4cccnc4)CC3)cc2)C(C)(C)C)cc1`: the IC50 in [1] is 0.07 nM; in data set [4], 5.9 nM; in data set [5], 1.59 nM. The Activity result in [2] was “Dose-Dependent Effect”. For the same compound, the EC50 in [3] is 56 nM.
For the compound `Cc1ncsc1-c1ccc([C@H](C)NC(=O)[C@@H]2C[C@@H](O)CN2C(=O)[C@@H](NC(=O)COCCOCCOCCOCCNC(=O)c2ccc(CN3CCN(S(=O)(=O)c4ccc(NC(=S)NCc5cccnc5)cc4)CC3)cc2)C(C)(C)C)cc1`, the IC50 in data set [4] was below 4 nM.
For `O=C(/C=C/c1cccnc1)NCCCCC1CCN(C(=O)c2ccccc2)CC1` [DAPORINAD], the IC50 in data set [1] is below 0.001 nM; in data set [4], below 3 nM. Further, the Activity in [14] stood at 10.22%; in data set [15], 16.3%; in data set [16], 26.84%.
As to `Cc1ncsc1-c1ccc([C@H](C)NC(=O)[C@@H]2C[C@@H](O)CN2C(=O)[C@@H](NC(=O)CCCCNC(=O)c2ccc(C(=O)N3CCC(CCCCNC(=O)/C=C/c4cccnc4)CC3)cc2)C(C)(C)C)cc1`, the 50% inhibitory concentration (IC50) in data set [1] was determined as 0.21 nM; in data set [4], 3 nM; in data set [5], 2.67 nM. For the same compound, the Activity result in [2] is “Dose-Dependent Effect”. Moreover, the EC50 in data set [3] amounted to 189 nM.
